Values joined by “and” are separate entries in the source; they are usually repeats but may differ in a detail not shown here. Identical values can stand only once. Toxic doses and inconclusive results are not listed.
Tested on: P388 leukemia ip, CD2F1 mice, survival T/C
Experiment: NCI In Vivo Anticancer Drug Screen. Data for tumor model P388 Leukemia (intraperitoneal) in CD2F1 (CDF1) mice
Conditions: endpoint: median survival time, higher = longer survival
Method in brief: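 Mice carrying the transplanted tumor received test compound or vehicle. Survival was recorded in each group, and the value is the treated-group measurement divided by that of the vehicle-treated control group.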

[1] = dose: 50.0 mg/kg/injection, schedule: Q01DX005 (ip), vehicle: Klucel (hydroxypropylcellulose) (HPC)
[2] = dose: 100.0 mg/kg/injection, schedule: Q01DX005 (ip), vehicle: Klucel (hydroxypropylcellulose) (HPC)
[3] = dose: 200.0 mg/kg/injection, schedule: Q01DX005 (ip), vehicle: Klucel (hydroxypropylcellulose) (HPC)
[4] = dose: 100.0 mg/kg/injection, schedule: Q04DX003 (ip), vehicle: Klucel (hydroxypropylcellulose) (HPC)
[5] = dose: 200.0 mg/kg/injection, schedule: Q04DX003 (ip), vehicle: Klucel (hydroxypropylcellulose) (HPC)
[6] = dose: 400.0 mg/kg/injection, schedule: Q04DX003 (ip), vehicle: Klucel (hydroxypropylcellulose) (HPC)
[7] = dose: 50.0 mg/kg/injection, schedule: Q04DX003 (ip), vehicle: saline with Tween-80
[8] = dose: 100.0 mg/kg/injection, schedule: Q04DX003 (ip), vehicle: saline with Tween-80
[9] = dose: 200.0 mg/kg/injection, schedule: Q04DX003 (ip), vehicle: saline with Tween-80
[10] = dose: 3.13 mg/kg/injection, schedule: Q01DX009 (ip), vehicle: saline
[11] = dose: 6.25 mg/kg/injection, schedule: Q01DX009 (ip), vehicle: saline
[12] = dose: 50.0 mg/kg/injection, schedule: Q01DX009 (ip), vehicle: saline with Tween-80

Compound: CCCCC1C(=O)N2C=C(c3ccccc3)c3ccccc3N2C1=O (configuration not stated)
- T/C (dose: 25.0 mg/kg/injection, schedule: Q01DX009 (ip), vehicle: Klucel (hydroxypropylcellulose) (HPC)): 104 % of control
- T/C (dose: 50.0 mg/kg/injection, schedule: Q01DX009 (ip), vehicle: Klucel (hydroxypropylcellulose) (HPC)): 111 % of control
- T/C (dose: 100.0 mg/kg/injection, schedule: Q01DX009 (ip), vehicle: Klucel (hydroxypropylcellulose) (HPC)): 95 % of control
- T/C (dose: 200.0 mg/kg/injection, schedule: Q01DX009 (ip), vehicle: Klucel (hydroxypropylcellulose) (HPC)): 105 % of control
- T/C (dose: 400.0 mg/kg/injection, schedule: Q01DX009 (ip), vehicle: Klucel (hydroxypropylcellulose) (HPC)): 95 % of control

Compound: COc1cccc([B-]23OCC[N+]2(CNC(=O)c2ccccc2O)CCO3)c1 (configuration not stated)
- T/C [1]: 106 % of control
- T/C [2]: 104 % of control
- T/C [3]: 112 % of control

Compound: O=C1CC2(CCCCC2)C(=O)N1c1ccc(N2C(=O)CC3(CCCCC3)C2=O)cc1
- T/C [4]: 99 % of control
- T/C [5]: 93 % of control
- T/C [6]: 96 % of control

Compound: CN1C(=O)NC(c2ccc(Cl)cc2)(c2ccc(Cl)cc2)C1=O
- T/C (dose: 5.0 mg/kg/injection, schedule: Q04DX003 (ip), vehicle: other): 105 % of control
- T/C (dose: 10.0 mg/kg/injection, schedule: Q04DX003 (ip), vehicle: other): 104 % of control
- T/C (dose: 20.0 mg/kg/injection, schedule: Q04DX003 (ip), vehicle: other): 107 % of control
- T/C (dose: 25.0 mg/kg/injection, schedule: Q04DX003 (ip), vehicle: other): 101 % of control
- T/C (dose: 40.0 mg/kg/injection, schedule: Q04DX003 (ip), vehicle: other): 118 % of control
- T/C (dose: 50.0 mg/kg/injection, schedule: Q04DX003 (ip), vehicle: other): 119 % of control

Compound: CCNC1=CC(=O)c2ncccc2C1=O
- T/C (dose: 3.13 mg/kg/injection, schedule: Q01DX009 (ip), vehicle: DMSO): 99 % of control
- T/C (dose: 6.25 mg/kg/injection, schedule: Q01DX009 (ip), vehicle: DMSO): 100 % of control
- T/C (dose: 12.5 mg/kg/injection, schedule: Q01DX009 (ip), vehicle: DMSO): 99 % of control
- T/C (dose: 25.0 mg/kg/injection, schedule: Q01DX009 (ip), vehicle: DMSO): 95 % of control

Compound: CSc1nccc(=O)n1-c1ccccc1
- T/C [4]: 91 % of control
- T/C [5]: 92 % of control

Compound: COc1ccc(/C=C/C(=O)c2c(N)n(C)c(=O)n(C)c2=O)cc1
- T/C [1]: 91 % of control
- T/C [2]: 88 % of control

Compound: CCCNC(=O)NS(=O)(=O)c1ccc(Cl)cc1
- T/C [7]: 102 % of control
- T/C [8]: 109 % of control
- T/C [9]: 100 % of control

Compound: S=C(SSC(=S)N(Cc1ccccc1)Cc1ccccc1)N(Cc1ccccc1)Cc1ccccc1
- T/C (dose: 60.0 mg/kg/injection, schedule: Q01DX005 (ip), vehicle: saline with Tween-80): 96 % of control
- T/C (dose: 120.0 mg/kg/injection, schedule: Q01DX005 (ip), vehicle: saline with Tween-80): 103 % of control
- T/C (dose: 240.0 mg/kg/injection, schedule: Q01DX005 (ip), vehicle: saline with Tween-80): 96 % of control

Compound: CCOC(=O)c1cc2cc3c4c(c2oc1=O)CCCN4CCC3
- T/C (dose: 12.5 mg/kg/injection, schedule: Q01DX005 (ip), vehicle: Klucel (hydroxypropylcellulose) (HPC)): 106 % of control
- T/C (dose: 25.0 mg/kg/injection, schedule: Q01DX005 (ip), vehicle: Klucel (hydroxypropylcellulose) (HPC)): 110 % of control
- T/C [1]: 107 % of control and 111 % of control

Compound: CC(=O)OC1CCC2C3CCC4=C(C(=O)C=CC4(C)O)C3CCC12C (configuration not stated)
- T/C (dose: 4.0 mg/kg/injection, schedule: Q01DX009 (ip), vehicle: Klucel (hydroxypropylcellulose) (HPC)): 93 % of control
- T/C (dose: 8.0 mg/kg/injection, schedule: Q01DX009 (ip), vehicle: Klucel (hydroxypropylcellulose) (HPC)): 90 % of control
- T/C (dose: 16.0 mg/kg/injection, schedule: Q01DX009 (ip), vehicle: Klucel (hydroxypropylcellulose) (HPC)): 101 % of control
- T/C (dose: 32.0 mg/kg/injection, schedule: Q01DX009 (ip), vehicle: Klucel (hydroxypropylcellulose) (HPC)): 88 % of control
- T/C (dose: 64.0 mg/kg/injection, schedule: Q01DX009 (ip), vehicle: Klucel (hydroxypropylcellulose) (HPC)): 108 % of control

Compound: CN(C)c1ccc(C2=CC(c3ccc(N(C)C)cc3)(c3ccc(C(F)(F)F)cc3)C=C(c3ccc(N(C)C)cc3)S2)cc1
- T/C (dose: 100.0 mg/kg/injection, schedule: Q01DX001 (ip), vehicle: Klucel (hydroxypropylcellulose) (HPC)): 101 % of control
- T/C (dose: 200.0 mg/kg/injection, schedule: Q01DX001 (ip), vehicle: Klucel (hydroxypropylcellulose) (HPC)): 92 % of control

Compound: O=C(O)C[n+]1cccc2ccccc21
- T/C (dose: 50.0 mg/kg/injection, schedule: Q01DX005 (ip), vehicle: saline): 103 % of control
- T/C (dose: 100.0 mg/kg/injection, schedule: Q01DX005 (ip), vehicle: saline): 93 % of control
- T/C (dose: 200.0 mg/kg/injection, schedule: Q01DX005 (ip), vehicle: saline): 87 % of control

Compound: Nc1cc2oc(=O)[nH]c2cc1Cl
- T/C [1]: 90 % of control
- T/C [2]: 92 % of control
- T/C [3]: 103 % of control

Compound: COc1ccc2[nH]c3c(C)c4cc[n+](C)cc4c(C)c3c2c1
- T/C [10]: 153 % of control
- T/C [11]: 100 % of control

Compound: c1ccc(P2(c3ccccc3)(c3ccccc3)OCC3CC32)cc1 (configuration not stated)
- T/C (dose: 3.13 mg/kg/injection, schedule: Q01DX009 (ip), vehicle: saline with Tween-80): 103 % of control
- T/C [10]: 94 % of control
- T/C (dose: 6.25 mg/kg/injection, schedule: Q01DX009 (ip), vehicle: saline with Tween-80): 106 % of control
- T/C [11]: 98 % of control
- T/C (dose: 12.5 mg/kg/injection, schedule: Q01DX009 (ip), vehicle: saline with Tween-80): 103 % of control and 124 % of control
- T/C (dose: 12.5 mg/kg/injection, schedule: Q01DX009 (ip), vehicle: saline): 95 % of control
- T/C (dose: 25.0 mg/kg/injection, schedule: Q01DX009 (ip), vehicle: saline with Tween-80): 100 % of control and 111 % of control
- T/C (dose: 25.0 mg/kg/injection, schedule: Q01DX009 (ip), vehicle: saline): 100 % of control
- T/C (dose: 50.0 mg/kg/injection, schedule: Q01DX009 (ip), vehicle: olive oil, sesame oil, peanut oil): 95 % of control
- T/C [12]: 102 % of control

Compound: O=C(O)CN(CCN(CC(=O)O)CC(=O)O)CC(=O)O.[O]=[Mo]1[O][Mo](=[O])[O]1
- T/C (dose: 50.0 mg/kg/injection, schedule: Q01DX009 (ip), vehicle: saline): 89 % of control
- T/C (dose: 100.0 mg/kg/injection, schedule: Q01DX009 (ip), vehicle: saline): 90 % of control

Compound: Clc1ccc(C2=NNC(c3ccc(Cl)cc3)=NN2)cc1
- T/C (dose: 60.0 mg/kg/injection, schedule: Q01DX005 (ip), vehicle: Klucel (hydroxypropylcellulose) (HPC)): 103 % of control
- T/C (dose: 120.0 mg/kg/injection, schedule: Q01DX005 (ip), vehicle: Klucel (hydroxypropylcellulose) (HPC)): 102 % of control
- T/C (dose: 240.0 mg/kg/injection, schedule: Q01DX005 (ip), vehicle: Klucel (hydroxypropylcellulose) (HPC)): 98 % of control

Compound: CC(=O)Nc1ccc(-c2cn3ccccc3n2)cc1
- T/C [12]: 100 % of control
- T/C (dose: 100.0 mg/kg/injection, schedule: Q01DX009 (ip), vehicle: saline with Tween-80): 92 % of control
- T/C (dose: 200.0 mg/kg/injection, schedule: Q01DX009 (ip), vehicle: saline with Tween-80): 106 % of control

Compound: O=C(NC(CCS(=O)(=O)F)C(=O)OCc1ccccc1)OCc1ccccc1 (configuration not stated)
- T/C (dose: 12.5 mg/kg/injection, schedule: Q01DX009 (ip), vehicle: other): 102 % of control
- T/C (dose: 25.0 mg/kg/injection, schedule: Q01DX009 (ip), vehicle: other): 97 % of control
- T/C (dose: 50.0 mg/kg/injection, schedule: Q01DX009 (ip), vehicle: other): 100 % of control
- T/C (dose: 100.0 mg/kg/injection, schedule: Q01DX009 (ip), vehicle: other): 102 % of control
- T/C (dose: 200.0 mg/kg/injection, schedule: Q01DX009 (ip), vehicle: other): 105 % of control

Compound: CC(C)(C)N1CC(C(=O)c2ccccc2)C1c1ccccc1 (configuration not stated)
- T/C [7]: 100 % of control
- T/C [8]: 98 % of control
- T/C [9]: 97 % of control
- T/C (dose: 400.0 mg/kg/injection, schedule: Q04DX003 (ip), vehicle: saline with Tween-80): 97 % of control

Compound: O=C1/C(=C/N2CCN(c3ccccc3)CC2)Cc2c(F)cccc21
- T/C [4]: 100 % of control
- T/C [5]: 97 % of control
- T/C [6]: 100 % of control

Compound: CC(C)=CC1OC2CC3(C)C4=C(CCC3(C)C2C(C)C1O)C1(C)CCC(O)C(C)(C)C1CC4 (configuration not stated)
- T/C (dose: 15.0 mg/kg/injection, schedule: Q01DX009 (ip), vehicle: saline): 98 % of control
- T/C (dose: 30.0 mg/kg/injection, schedule: Q01DX009 (ip), vehicle: saline): 102 % of control
- T/C (dose: 60.0 mg/kg/injection, schedule: Q01DX009 (ip), vehicle: saline): 100 % of control

Source: PubChem BioAssay AID330 (DTP/NCI, 2004)
